Measured values as given in patent US20260207720A1, “COMPOSITIONS AND METHODS FOR TREATING FUNGAL INFECTIONS” (MUCPharm Pty Ltd, priority 2022, published 2026).
In brackets after ≈: the same amount, converted by molar mass. Where two headings read alike, the source gives them in different places.

Experiments:
Assay type in all cases: cell-based
[1] = tested on: Candida glabrata (clinical isolate); test: Broth dilution susceptibility test, MIC and percent growth (Example 5); settings: for MIC: 24 hours, 625 nm
Method: These experiments were conducted to determine the effect of BromAc alone and in combination with existing antifungal drugs against Candida glabrata (clinical isolate).
A. Preparation of inoculum: • 1. Candida glabrata was grown on Sabouraud dextrose agar (SDA) at 37° C. for 24-48 hrs. • 2. Following this, 5 colonies of 1 mm diameter were picked and suspended in 5 mL sterile saline (0.9% saline) and vortexed for 15 seconds. • 3. Working suspension is prepared as a 1:100 dilution from stock suspension with RPMI 1640 culture medium. • 4. The cell density is adjusted with a spectrophotometer to the transmittance produced by a 0.5 McFarland standard (0.08 to 0.1) OD at 625 nm wavelength.
• 1. For Bromelain, a stock concentration of 1 mg/ml Bromelain solution was prepared in RPMI media and diluted to test concentrations of 62.4, 31.2, 15.6 and 7.8 μg/ml in RPMI 1640 media. • 2. Acetylcysteine stock concentration is 200 mg/ml, diluted to 40, 20, 10, and 5 mg/ml concentrations in RPMI 1640 medium. • 3. These concentrations are prepared at 2× of the required concentrations in the final assay plate.
Antifungal stock concentrations are as follows— • 1. Amphotericin B, Stock concentration: 250 μg/ml in water. • 2. Posaconazole, Original concentration: 300 mg in 16.7 ml, Working stock concentration: 1 mg/ml in DMSO. • 3. Fluconazole, Original concentration: 100 mg in 50 ml, Working stock concentration: 1 mg/ml in DMSO. • 4. The final concentration was prepared in RPMI 1640 media and concentrations range was 0.01-0.5 μg/mL for amphotericin B, 0.01-2 μg/mL for posaconazole and 0.01-64 μg/mL for fluconazole. • 5. These concentrations were prepared at 2× of the required concentrations in the final assay plate.
• 1. Wells of the 96-well plates were inoculated with appropriate concentrations and volumes of drugs. • 2. Sterility control and growth controls are included in each plate. • 3. Each 96-well plate (except the control wells) contains 100 μL of double strength (twice the final antifungal drug) concentrations. • 4. 100 μL of the fungal suspension is added to 96-well plates (except the sterility control wells). • 5. The growth control wells contained 100 μL of sterile drug-free medium and 100 μL of inoculum suspension, while the sterility control wells contained 200 μl of sterile drug-free medium. • 6. Plates are then incubated at 37° C. and read at 625,430, and 530 nm wavelengths. • 7. Data from 24 hours and absorbance at 625 nm were used for analysis.

Rhizopus microsporus = test: Chequerboard broth microdilution antifungal susceptibility testing (MIC); settings: for isolates with more than 10× increase: Rhizopus microspores, antifungal with BromAc; for MIC / Observed inhibitory effect: Rhizopus microsporus; for Observed inhibitory effect: antifungal in combination with BromAc (5 mg/ml Acetylcysteine+12.5 μg/ml Bromelain) vs alone
Method: (§1) Unless otherwise described, fungal cultures were grown on potato dextrose agar plates at 35° C. until mature (appearance of conidia) and used to prepare suspensions in sterile water. […] These suspensions were then added in equal volume to solutions containing the candidate species described above and incubated at 35° C. for 24 hr. Plates were then analysed for fungal growth inhibition and MIC values determined. […] [MICA (combined)/MICA]+[MICB (combined)/MICB] MICA (combined) is the MIC of drug A when both drugs (i.e. drug A and drug B) are present and MICA is the MIC of drug A used in isolation. Similarly, MICB (combined) is the MIC of drug B when both drugs are present and MICB is the MIC of drug B used in isolation.

Rhizopus arrhizus = test: as above; settings: for isolates with 10× increase: Rhizopus Arrhizus, antifungal with BromAc; for MIC / Observed inhibitory effect: Rhizopus arrhizus; for Observed inhibitory effect: antifungal in combination with BromAc (5 mg/ml Acetylcysteine+12.5 μg/ml Bromelain) vs alone
Method: as §1

[2] = Rhizopus microsporus (80-21-006-5340), drug alone, read-out: MIC
[3] = eight R. microsporus strains, read-out: MIC, average over the strains
[4] = isolate R. microsporus 1, BromAc at constant concentration where combined, read-out: MIC
[5] = isolate R. microsporus 2, BromAc at constant concentration where combined, read-out: MIC
[6] = isolate R. microsporus 3, BromAc at constant concentration where combined, read-out: MIC
[7] = isolate R. microsporus 4, BromAc at constant concentration where combined, read-out: MIC
[8] = isolate R. microsporus 5, BromAc at constant concentration where combined, read-out: MIC
[9] = isolate R. microsporus 6, BromAc at constant concentration where combined, read-out: MIC
[10] = isolate R. microsporus 7, BromAc at constant concentration where combined, read-out: MIC
[11] = isolate R. microsporus 8, BromAc at constant concentration where combined, read-out: MIC
[12] = Rhizopus arrhizus (80-21-015-4777), drug alone, read-out: MIC
[13] = eight R. arrhizus strains, read-out: MIC, average over the strains
[14] = isolate R. archizus 1, BromAc at constant concentration where combined, read-out: MIC
[15] = isolate R. archizus 2, BromAc at constant concentration where combined, read-out: MIC
[16] = isolate R. archizus 3, BromAc at constant concentration where combined, read-out: MIC
[17] = isolate R. archizus 8, BromAc at constant concentration where combined, read-out: MIC
[18] = isolate R. arrhizus 4, BromAc at constant concentration where combined, read-out: MIC
[19] = isolate R. arrhizus 5, BromAc at constant concentration where combined, read-out: MIC
[20] = isolate R. arrhizus 6, BromAc at constant concentration where combined, read-out: MIC
[21] = isolate R. arrhizus 7, BromAc at constant concentration where combined, read-out: MIC

Row | SMILES | isolates with more than 10× increase (Rhizopus microsporus) | MIC (Rhizopus microsporus; [2]) [µg/mL] | MIC (Rhizopus microsporus; [3]) [µg/mL] | MIC (Rhizopus microsporus; [4]) [µg/mL] | MIC (Rhizopus microsporus; [5]) [µg/mL] | MIC (Rhizopus microsporus; [6]) [µg/mL] | MIC (Rhizopus microsporus; [7]) [µg/mL] | MIC (Rhizopus microsporus; [8]) [µg/mL] | MIC (Rhizopus microsporus; [9]) [µg/mL] | MIC (Rhizopus microsporus; [10]) [µg/mL] | MIC (Rhizopus microsporus; [11]) [µg/mL] | Observed inhibitory effect (Rhizopus microsporus) | MICs, range over the strains (Rhizopus microsporus; eight R. microsporus strains) [µg/mL] | isolates with 10× increase (Rhizopus arrhizus) | MIC (Rhizopus arrhizus; [12]) [µg/mL] | MIC (Rhizopus arrhizus; [13]) [µg/mL] | MIC (Rhizopus arrhizus; [14]) [µg/mL] | MIC (Rhizopus arrhizus; [15]) [µg/mL] | MIC (Rhizopus arrhizus; [16]) [µg/mL] | MIC (Rhizopus arrhizus; [17]) [µg/mL] | further results
1 | C[C@@H]1[C@H](O)[C@@H](C)/C=C/C=C/C=C/C=C/C=C/C=C/C=C/[C@H](O[C@@H]2O[C@H](C)[C@@H](O)[C@H](N)[C@@H]2O)C[C@@H]2O[C@](O)(C[C@@H](O)C[C@@H](O)[C@H](O)CC[C@@H](O)C[C@@H](O)CC(=O)O[C@H]1C)C[C@H](O)[C@H]2C(=O)O [Amphotericin B] | 9 of 10 | 0.5 (≈ 0.541 µM) | 0.7 (≈ 0.758 µM) | 1 | 1 | 0.25 | 0.5 | 0.5 | 0.5 | 0.5 | 0.5 | Strong (Strong = 5-10x (or greater) inhibitory effect) | 0.5 to 1 | 8 of 8 | 0.5 (≈ 0.541 µM) | 0.6 (≈ 0.649 µM) | 1 | 0.5 | 1 | 0.5 | MIC ([1]; Nakaseomyces glabratus, measured at 90% growth inhibition): 1 µg/mL; effect on fungal culture (in words) (Rhizopus microsporus; alone at 0.25 mg/L): not effective; MIC (Rhizopus arrhizus; [18]): 0.5 µg/mL; MIC (Rhizopus arrhizus; [19]): 0.5 µg/mL; MIC (Rhizopus arrhizus; [20]): 1 µg/mL; MIC (Rhizopus arrhizus; [21]): 0.5 µg/mL; Observed inhibitory effect (Rhizopus arrhizus): Strong (Strong = 5-10x (or greater) inhibitory effect); effect on fungal culture (in words) (Rhizopus arrhizus; alone at 0.25 mg/L): not effective; Amphotericin concentration at which complete inhibition was seen (Rhizopus arrhizus; combined with 25 μg/mL of bromelain): 0.3 mg/L; MICs, range over the strains (Rhizopus arrhizus; eight R. arrhizus strains): 0.25 to 1 µg/mL
2 | CC[C@@H]([C@H](C)O)n1ncn(-c2ccc(N3CCN(c4ccc(OC[C@@H]5CO[C@@](Cn6cncn6)(c6ccc(F)cc6F)C5)cc4)CC3)cc2)c1=O [Posaconazole] | 9 of 10 | 1 (≈ 1.43 µM) | 0.5 (≈ 0.713 µM) | 1 | 1 | 0.25 | 0.25 | 0.25 | 0.25 | 0.25 | 0.25 | Strong (Strong = 5-10x (or greater) inhibitory effect) | 0.25 to 1 | 7 of 8 | 0.5 (≈ 0.713 µM) | 0.8 (≈ 1.14 µM) | 1 | 1 | 0.25 | 0.25 | MIC ([1]; Nakaseomyces glabratus, 50% growth inhibition): 2 µg/mL; inhibition at 2 µg/mL ([1]; Nakaseomyces glabratus, at 2 μg/ml, read-out: decline in C. glabrata viability over the growth control): 25%; effect on C. glabrata viability / growth (in words) ([1]; at the concentrations tested, FIGS. 3-7): weaker antifungal effect; effect at lower concentration compared to growth control (in words) ([1]; concentrations lower than the MIC): slight decline; MIC (Rhizopus arrhizus; [18]): 0.25 µg/mL; MIC (Rhizopus arrhizus; [19]): 0.25 µg/mL; MIC (Rhizopus arrhizus; [20]): 0.5 µg/mL; MIC (Rhizopus arrhizus; [21]): 0.25 µg/mL; Observed inhibitory effect (Rhizopus arrhizus): Strong (Strong = 5-10x (or greater) inhibitory effect); MICs, range over the strains (Rhizopus arrhizus; eight R. arrhizus strains): 0.25 to 1 µg/mL
